In patent US20050107289A1, “Anti-microbial peptides and compositions” (priority 2001, published 2005):
≈ marks a conversion by molar mass, not a printed value. Structures can show the parent of a compound that is named as a salt. Where two headings read alike, the source gives them in different places. Non-standard residues stand in square brackets, D forms with d. Residues, ends and D or L forms follow the SMILES beside them.

Key:
E. faecalis ATCC 51299 = assay: microbe, parasite or virus in culture; type: cell-based, Enterococcus faecalis
Method: (§1) The antimicrobial activity of the peptides was determined using a broth dilution assay essentially as descried in the guidelines of the National Committee for […] (NCCLS) [National Committee for Clinical Laboratory Standards. Methods for dilution antimicrobial susceptibility tests for bacteria that grow aerobically. Fourth edition. Approved Standard (1997). Document M7-A4. […] The microdilution method has the advantages of requiring less amount of peptide for each assay and the possibility of multiple simultaneous inoculations and was used in most studies. Several of the strains of bacteria tested are further described in Table 3.
(§2) Preparation of peptide solutions. Stock peptide solutions were prepared in 5% DMSO in aq. sucrose (9%). Determination of peptide concentrations was done by quantitative HPLC analysis using known concentrations of internal standards and/or by measuring UV absorption of tryptophane-containing peptide solutions in H2O (λ=280 εTrp: 5690). Serial 2-fold dilutions were made in the above DMSO/aq. sucrose (9%) mixture with concentrations ranging approximately 400-2 μg/ml and aliquots were dispensed in test tubes (100 μl) for the macrodilution test or in microtiter plates (20 μl) for the microdilution assays.
(§3) Inoculum preparation. Overnight cultures of different microorganisms grown in suitable media were diluted 4000 times to an approximate inoculum size of 2.5×10^5 cfu/ml.
(§4) Macrodilution method. Macrodilution methods were performed using procedures similar to those described in the National Committee for Clinical Laboratory Standards. Methods for dilution antimicrobial susceptibility tests for bacteria that grow aerobically. Fourth edition. Approved Standard (1997). Document M7-A4. (NCCLS,Villanova, Pa., 1997). Two ml aliquots of the above inoculum were dispensed to test tubes containing different peptide solutions.
(§5) Microdilution method. Microdilution methods were performed using procedures similar to those described in the National Committee for Clinical Laboratory Standards. Methods for dilution antimicrobial susceptibility tests for bacteria that grow aerobically. Fourth edition. Approved Standard (1997). Document M7-A4.

H. influenzae ATCC 49247 = assay: microbe, parasite or virus in culture; type: cell-based, Hemophilus influenzae
Method: as §1, §2, §3, §4, §5

S. aureus ATCC 33592 = assay: microbe, parasite or virus in culture; type: cell-based, Staphylococcus aureus
Method: as §1, §2, §3, §4, §5

E. coli (K12) = assay: microbe, parasite or virus in culture; type: cell-based, Escherichia coli
Method: as §1, §2, §3, §4, §5

[1] = system: E. coli (EL744) K12 (tolC::kan); assay: microbe, parasite or virus in culture; type: cell-based, Escherichia coli
Method: as §1, §2, §3, §4, §5

E. faecium SP180 = assay: microbe, parasite or virus in culture; type: cell-based, Enterococcus faecium
Method: as §1, §2, §3, §4, §5

[2] = system: vancomycin-resistant Enterococus faecalis (VRE)(ATCC 51575); type: cell-based, Enterococcus faecalis; design: key to VRE (in vitro activity): peptide concentration in μg/ml (broth dilution assay); conditions: for VRE (in vitro activity): Table 9
In short: (§6)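 Broth microdilution (macrodilution in some cases) per NCCLS M7-A4; peptides 2-fold serially diluted in 5% DMSO/9% sucrose, ~400-2 μg/ml before dilution into broth; inoculum ~2.5×10^5 cfu/ml from overnight culture diluted 4000×.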

[3] = system: S. aureus (MRSA) ATCC 33591; type: cell-based, Staphylococcus aureus; conditions: for MRSA (in vitro activity): Table 9
In short: as §6

murine red blood cells = assay: Red blood cell hemolysis; type: cell-based, mouse
In short: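 Washed murine erythrocytes at 5% in saline with 10% FBS were exposed to serial peptide dilutions for 30 min at 37° C. Supernatant absorbance at 560 nm was read, with saline as 0% and 1% Triton X-100 as 100% hemolysis.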

[4] = system: Bacillus cereus ATCC 11778; type: cell-based
In short: as §6

[5] = system: Streptococcus pneumoniae (ATCC 6301); type: cell-based
In short: as §6

[6] = system: vancomycin resistant E. faecium (VREF)(ATCC 51575); assay: Mouse peritonitis model, VREF protection; type: in vivo, mice; design: PD50 VREF: unit not given here
Method: Vancomycin resistant Enterococcus faecium (VREF) bacteria (ATCC 51575) were grown at 37° C. in 60 mL of Brain Heart Infusion medium (BHI, Difco Laboratories) with agitation for 16 hours to a stationary phase. Cells were collected by centrifugation, washed twice with saline solution and resuspended in 6 mL of saline to a theoretical O.D.650 of 9-10 (determined by taking OD.650 of 10-20 fold diluted samples and correlating it to the original concentration). This suspension was diluted 15 times in a sterilized 5% mucin (Difco) in saline to a concentration of 5-7×10^8 cfu/ml (actual inoculum size was verified by colony counts on agar plates).
(§7) Peptides of the invention were tested in mice to ascertain whether they would protect the mice against bacterial infection using procedures similar to those described in N. Frimodt-Moller et al., The Mouse Peritonitis/Sepsis Model, in Zak et al. (eds.) HANDBOOK OF ANIMAL MODELS OF INFECTION 127-37 (Academic Press 1999).
(§8) Male Balb-C mice (6 weeks old, approximately 20 g) were used in the study. Staphylococcus aureus MRSA bacteria (ATCC 33591) were grown at 37° C. with agitation for 12 hours to a stationary phase. Cells were collected by centrifugation, washed twice with saline and resuspended to an O.D.650 of 1.4. This suspension was diluted ten times with saline and resuspended to a concentration of 3-5×10^7 cfu/ml. For each peptide five groups of eight mice per group were infected I.P. with 0.5 ml of the above Staphylococcus aureus MRSA preparation (lethal dose). Forty-five minutes to an hour after infection, each group was treated with a different dose of peptide and a control group received vehicle only. Mice were monitored for fourteen days; death was defined as the end point. Median protecting doses (PD50) were calculated following the Reed and Muench method. […] For IV and SQ models peptide was administered immediately after IP infection.

[7] = system: S. aureus MRSA (ATCC 33591); assay: Mouse peritonitis model, MRSA protection; type: in vivo, mice; design: PD50 MRSA: unit not given here
Method: Bacteria were prepared for in vivo using procedures similar to those as previously described. […] S. aureus MRSA bacteria (ATCC 33591) were grown at 37° C. in 5 mL of Antibiotic Medium-3 (AM-3, Difco Laboratories) with agitation for 12 hours to a stationary phase. Cells were collected by centrifugation, washed twice with saline solution and resuspended in about 10 mL of saline to an O.D.650 of 1.2. This suspension was diluted ten times in a sterilized 5% mucin (Difco) in saline to a concentration of 2-4×10^7 cfu/ml (actual inoculum size was verified by colony counts on agar plates).
as §7, §8

[8] = Single channel conductance in planar lipid membranes
Method: The ion transport properties of tetrapeptides cyclo[(β-Trp)4] and cyclo[(β-Trp-β-Leu)2], synthesized via established protocols, were studied in liposome-based assays and by single channel conductance measurements in planar lipid membranes. The observed conductance in 500 mM KCl with peptide concentrations of about […] in the subphase is 56 pS, corresponding to the rates of channel mediated K^+ transport of 1.9×10^7 ions s^−1 for both tetrapeptides.

[9] = Table 12, male Balb-C mice, IP infection, IP peptide
[10] = single bolus IP dose of appropriate amount, 45-60 min after infection

CC(C)C[C@H]1NC(=O)[C@H](CCCNC(=N)N)NC(=O)[C@@H](CCCNC(=N)N)NC(=O)[C@H](Cc2c[nH]c3ccccc23)NC(=O)[C@@H](CC(C)C)NC(=O)[C@H](Cc2c[nH]c3ccccc23)NC1=O [[RRLWLW]-HCl, cyclo-(D-Arg-Arg-D-Leu-Trp-D-Leu-Trp)] (cyclo(R[dL]W[dL]W[dR]))
E. faecalis ATCC 51299 MIC (E. faecalis ATCC 51299; ATCC 51299): 32 to 64 µg/mL | H. influenzae ATCC 49247 MIC (H. influenzae ATCC 49247; ATCC 49247): 8 to 16 µg/mL | S. aureus ATCC 33592 MIC (S. aureus ATCC 33592; ATCC 33592): 32 µg/mL | E. coli (K12) MIC (E. coli (K12); K12): 16 µg/mL | E. coli (EL744) K12 (tolC::kan) MIC ([1]; MHII broth): 8 µg/mL | E. faecium SP180 MIC (E. faecium SP180; SP180): 8 to 16 µg/mL

NC[C@H]1O[C@H](O[C@H]2[C@H](O)[C@@H](O[C@H]3O[C@H](CO)[C@@H](O)[C@H](N)[C@H]3O)[C@H](N)C[C@@H]2N)[C@H](O)[C@@H](O)[C@@H]1O [Kanamycin, reference compound]
MIC (E. faecalis ATCC 51299; Enterococcus faecalis, ATCC51299, read-out: E. faecalis ATCC 51299 MIC): > 128 µg/mL | MIC (H. influenzae ATCC 49247; Haemophilus influenzae, ATCC49247, HTM, read-out: H. influenzae ATCC 49247 MIC): 4 µg/mL (≈ 8.26 µM) | VRE (in vitro activity) ([2]; media c: Brain Heart Infusion (BHI)): >600 | MIC (S. aureus ATCC 33592; Staphylococcus aureus, ATCC33592, read-out: S. aureus ATCC 33592 MIC): > 128 µg/mL | MRSA (in vitro activity) ([3]; media b: cation adjusted Meuller Hinton broth (MHBII)): 150 | MIC (E. coli (K12); Escherichia coli, MHII broth, read-out: E. coli (K12) MIC): 4 µg/mL (≈ 8.26 µM) | MIC ([1]; Escherichia coli, read-out: E. coli (EL744) K12 (tolC::kan) MIC): > 128 µg/mL | RBC Hemolysis (HD50) (murine red blood cells; mouse, 30 min): >600 | MIC (E. faecium SP180; Enterococcus faecium, SP180, read-out: E. faecium SP180 MIC): > 128 µg/mL

CC(C)C[C@H]1NC(=O)[C@H](Cc2c[nH]c3ccccc23)NC(=O)[C@@H](CCCCN)NC(=O)[C@H](CCCCN)NC(=O)[C@@H](CCCCN)NC(=O)[C@H](Cc2c[nH]c3ccccc23)NC(=O)[C@@H](CC(C)C)NC(=O)[C@H](Cc2c[nH]c3ccccc23)NC1=O [SEQ ID NO:17, cyclo[-(D-Lys-Lys-D-Lys-(Trp-D-Leu)2-Trp-]] (cyclo([dK]K[dK]W[dL]W[dL]W))
B. cerius MIC [4]: 5 µg/mL | S. pneum. MIC [5]: 10 µg/mL | VRE MIC ([2]; ATCC 51575): 40 µg/mL | VRE (in vitro activity) ([2]; media a: AM-3): 40 | MRSA MIC ([3]; ATCC 33591): 10 µg/mL | S. aureus (MRSA) MIC ([3]; ATCC 33591): 8 µg/mL | MRSA (in vitro activity) ([3]; media a: anti-microbial media-3 (AM-3)): 10 | RBC Hemolysis (HD50) (murine red blood cells): 45 | PD50 E. faecium VREF infection [6]: 13 mg/kg | PD50 VREF [6, 9]: 13 | protection of mice from VREF infection [6, 10]: completely protect | PD50 S. aureus MRSA infection [7]: 7 mg/kg | PD50 protective dose where 50% of animals survive ([7]; FIG. 6, mice challenged with lethal doses of MRSA): 6 ± 2 mg/kg | PD50 MRSA [7, 9]: 7 | protection of mice from MRSA infection [7, 10]: completely protect

cyclo[(β-Trp-β-Leu)2]
rate of channel mediated K+ transport ([8]; 500 mM KCl): 1.9×10^7 ions s^−1 | observed conductance ([8]; 500 mM KCl, peptide about 30 mM in the subphase): 56 pS | transport speed relative to gramicidin A ([8]; similar conditions): more than twice
